Source: PMC9656702, “Unveiling a New Selenocyanate as a Multitarget Candidate with Anticancer, Antileishmanial and Antibacterial Potential” (Molecules, 2022)
≈ marks a conversion by molar mass, not a printed value. Read-outs that look alike come from different tables or passages of the source.

Columns and labels:
MDA-MB-231 = assay: Antiproliferative MTT assay, MDA-MB-231 breast cancer cells; format: cell-based, human
Method: (§1) The antiproliferative activities of the cinnamyl and benzodioxyl derivatives were assessed against six human cell lines of three different types of cancer (colon, lung, and breast) using the 3-(4,5-dimethylthiazol-2-yl)-2,5-diphenyltetrazolium bromide (MTT) assay at seven concentrations for 48 h. The results are expressed as the IC50 values and are outlined in Table 1.
(§2) The cell lines were obtained from the American Type Culture Collection (ATCC). All the cancer cell lines (HT-29, HCT-116, H1299, HTB-54, MDA-MB-231 and MCF-7) and the nontumorigenic cells (184B5) were maintained in RPMI 1640 medium (Gibco), supplemented with 10% fetal bovine serum (FBS; Gibco) and 1% antibiotics (10.00 units/mL penicillin and 10.00 mg/mL streptomycin; Gibco). Cells were preserved in tissue culture flasks at 37 °C and 5% CO2. Culture medium was replaced every three days.
(§3) The cytotoxic effect of each compound was initially tested at seven different concentrations ranging between 0.5 and 100 µM in the cell lines mentioned above. The cells were seeded (1 × 10^4 cells per well) in 96-well plates and incubated at 37 °C and 5% CO2 for 24 h. After attachment, cells were treated with either dimethyl sulfoxide (DMSO) or increasing concentrations of the corresponding selenocompound for 48 h. The effect of the compounds on cell viability was determined by the MTT assay. In brief, 20 µL of MTT (5 mg/mL) was added to each well 2.5 h prior to experiment termination. At the end of the incubation, the medium was removed, and the formazan crystals were dissolved in 50 µL of DMSO. Absorbance was measured at 550 nm on a microplate reader. IC50 values were calculated using OriginPro 8.5.1. software by nonlinear curve fitting. Selectivity indexes were calculated as the ratio of the IC50 values determined for the nonmalignant and the tumoral cells in the breast cell lines (IC50 (184B5)/IC50 (MDA-MB-231) and IC50 (184B5)/IC50 (MCF-7)). Data were obtained from at least three independent experiments performed in triplicates.

S. epidermidis [1] = assay: MIC and MBC assay, S. epidermidis; format: cell-based, Staphylococcus epidermidis; conditions: for MIC / MBC: Staphylococcus epidermidis; for MIC: read-out: MIC S. epidermidis; for MBC: read-out: MBC S. epidermidis
Method: (§4) The minimum inhibitory concentration (MIC) and the minimum bactericidal concentration (MBC) values of the selenocompounds were determined in a panel of six bacterial strains as a first approach to assess their antibacterial activity. Thus, the synthesized derivatives were tested against the Gram-negative bacteria Escherichia coli (E. coli), Klebsiella pneumoniae (K. pneumoniae) and Citrobacter freundii (C. freundii); and the Gram-positive bacteria Staphylococcus aureus (S. aureus), Streptococcus faecalis (S. faecalis), and Staphylococcus epidermidis (S. epidermidis). […]
(§5) All the selenocompounds were screened for their in vitro inhibitory activity against three Gram-negative (E. coli, K. pneumoniae and C. freundii) and three Gram-positive (S. aureus, S. faecalis and S. epidermidis) bacteria. Bacterial strains were kindly provided by the Department of Microbiology and Parasitology of the University of Navarra. The bacterial cells were grown in tryptic soy agar (TSA) plates and maintained at 4 °C.
(§6) The compounds were firstly dissolved in DMSO and serially diluted in a 96-well plate in tryptic soy broth (TSB) with eleven concentrations ranging from 400 µg/mL to 0.4 µg/mL with a final volume of 100 µL. Subsequently, 100 µL of a diluted suspension of bacterial cells with an optical density of 0.125 measured at 600 nm in TSB (inoculum of approximately 10^5 CFU/mL) was added to each well and incubated at 37 °C for 24 h. After the incubation period, each well was analyzed for the presence or absence of visual growth of bacterial cells. The lowest concentration of the test compound at which no visible growth occurred was determined as the MIC values. After incubation, 10 µL of the bacterial suspension from each well that presented antibacterial activity was added to divided TSA plates and incubated at 37 °C overnight.

184B5 = assay: MTT assay in nonmalignant mammary gland cells 184B5; format: cell-based; conditions: for IC50: read-out: IC50 184B5
Method: To assess their possible selectivity, the synthesized selenocompounds were then tested in a mammary gland (184B5) nonmalignant cell line, and the selectivity indexes (SI) were determined as the ratio of the IC50 values obtained for the nonmalignant cells and the homolog cancer cells.
as §2, §3

H1299 = assay: Antiproliferative MTT assay, H1299 lung cancer cells; format: cell-based, human
Method: as §1, §2, §3

HTB-54 = assay: Antiproliferative MTT assay, HTB-54 lung cancer cells; format: cell-based, human
Method: as §1, §2, §3

S. aureus = assay: MIC and MBC assay, S. aureus; format: cell-based, Staphylococcus aureus; conditions: Gram-positive; for MIC / MBC: Staphylococcus aureus; for MIC / MIC S. aureus: 24 h at 37 °C
Method: as §4, §5, §6

S. faecalis = assay: Growth curve study, S. faecalis; format: cell-based, Streptococcus faecalis; conditions: for Bacterial growth of S. faecalis at 2MIC: highest concentration tested (2MIC), up to 48 h
Method: (§7) To further examine the inhibitory effect of the moderately active compounds 1a and 2a on the growth of the six bacterial strains tested, growth kinetic studies were performed. Thus, the six bacterial strains were exposed to three different concentrations of the test compounds using the MIC values (Table 4) as reference (2MIC, MIC, and MIC/2), while untreated cells were used as negative control. The bacterial growth was recorded by measuring the absorbance at several time points.
(§8) A stock solution of selected compounds 1a and 2a was prepared in DMSO, and different concentrations equivalent to 2MIC, MIC, and MIC/2 in TSB of each compound were dispensed into a 96-well plate with a final volume of 100 µL, while only TSB was added for the control wells. Then, 100 µL of a diluted suspension of bacterial cells in TSB with an optical density of 0.125 measured at 600 nm (inoculum of approximately 10^5 CFU/mL) was added to each well, and the incubation was monitored by spectrophotometric measurements. The absorbance was recorded at 600 nm against time (h) at predetermined periods on a microplate reader. The experiments were performed in triplicate.

K. pneumoniae = assay: Growth curve study, K. pneumoniae; format: cell-based, Klebsiella pneumoniae; conditions: for Bacterial growth of K. pneumoniae at 2MIC: highest concentration tested (2MIC), up to 48 h
Method: as §7, §8

E. coli = assay: Growth curve study, E. coli; format: cell-based, Escherichia coli; conditions: for Bacterial growth of E. coli at 2MIC: highest concentration tested (2MIC), up to 48 h; for Lag phase (delay in bacterial growth), E. coli: lowest concentration evaluated (MIC/2)
Method: as §7, §8

S. epidermidis [2] = assay: Growth curve study, S. epidermidis; format: cell-based, Staphylococcus epidermidis; conditions: for Bacterial growth of S. epidermidis at sub-MIC concentration: 6.25 µg/mL; for Bacterial growth of S. epidermidis at 2MIC: highest concentration tested (2MIC), up to 48 h
Method: as §7, §8

C. freundii = assay: Growth curve study, C. freundii; format: cell-based, Citrobacter freundii; conditions: for Bacterial growth of C. freundii at 2MIC: highest concentration tested (2MIC), up to 48 h
Method: as §7, §8

[3] = Homo sapiens, MDA-MB-231, MTT assay, 48 h, mean ± SD, read-out: IC50 MDA-MB-231
[4] = Homo sapiens, 184B5, 48 h, nontumorigenic cells, MTT assay, 48 h, mean ± SD
[5] = nontumorigenic cells, MTT assay, 48 h, mean ± SD
[6] = Homo sapiens, NCI-H1299, 48 h, MTT assay, 48 h, mean ± SD, read-out: IC50 H1299
[7] = MTT assay, 48 h, mean ± SD, read-out: IC50 H1299
[8] = Homo sapiens, HTB-54, MTT assay, 48 h, mean ± SD, read-out: IC50 HTB-54
[9] = MTT assay, 48 h, mean ± SD, read-out: IC50 MDA-MB-231
[10] = MTT assay, 48 h, mean ± SD, read-out: IC50 HTB-54

Compound | IC50 (MDA-MB-231; [3]) | MIC (S. epidermidis [1]; Gram-positive, 24 h at 37 °C) | IC50 (184B5; [4]) | IC50 (H1299; [6]) | IC50 (H1299; [7]) | IC50 (HTB-54; [8]) | MIC (S. aureus) | IC50 (MDA-MB-231; [9]) | MIC S. epidermidis (S. epidermidis [1]; Gram-positive, 24 h at 37 °C) | IC50 (184B5; [5]) | IC50 (HTB-54; [10]) | MIC S. aureus (S. aureus) | Bacterial growth of S. faecalis at 2MIC (S. faecalis) | melting point | Bacterial growth of K. pneumoniae at 2MIC (K. pneumoniae) | Bacterial growth of E. coli at 2MIC (E. coli) | Lag phase (delay in bacterial growth), E. coli (E. coli) | Bacterial growth of S. epidermidis at sub-MIC concentration (S. epidermidis [2]) | Bacterial growth of S. epidermidis at 2MIC (S. epidermidis [2]) | MBC (S. aureus) | further results
C(=C\c1ccccc1)/C[Se][Se]C/C=C/c1ccccc1 [Compound 1b, 1,2-Dicinnamyldiselenide] | 56.3 ± 5.3 µM | > 200 mg/L | > 100 µM | < 40 µM | 28.7 ± 2.6 µM | 50.1 ± 5.9 µM | > 200 mg/L | – | – | – | – | – | – | – | – | – | – | – | – | – | IC50 184B5 (184B5; [5]): not toxic
O=C(CC[Se]Cc1ccc2c(c1)OCO2)[c-]1cccc1.[Fe+2].c1cc[cH-]c1 [Compound 2c, 3-((Benzo[d][1,3]dioxol-5-ylmethyl)selanyl)-1-ferrocenylpropan-1-one] | – | – | – | – | 45.2 ± 7.2 µM | – | – | 30.9 ± 1.3 µM | >200 mg/L | 50.1 ± 4.5 µM | 29.7 ± 2.9 µM | >200 mg/L | – | – | – | – | – | – | – | – | –
O=C(CC[Se]CC=Cc1ccccc1)[c-]1cccc1.[Fe+2].c1cc[cH-]c1 [Compound 1c, 3-(Cinnamylselanyl)-1-ferrocenylpropan-1-one] | – | – | – | – | 70.6 ± 6.6 µM | – | – | 32.1 ± 3 µM | >200 mg/L | 24.6 ± 0.4 µM | 32.3 ± 3.2 µM | >200 mg/L | – | – | – | – | – | – | – | – | –
N#C[Se]Cc1ccc2c(c1)OCO2 [Compound 2a, 5-(Selenocyanatomethyl)benzo[d][1,3]dioxole] | 43.8 ± 5.7 µM | 12.5 mg/L (≈ 52.1 µM) | ~50 µM | < 12 µM | 11.9 ± 3.7 µM | 45.2 ± 8.2 µM | 25 mg/L (≈ 104 µM) | – | ≤ 25 mg/L | 48.6 ± 2.1 µM | – | ≤ 25 mg/L | no bacterial growth was detected | 71 to 73 °C | no bacterial growth was detected | no bacterial growth was detected | 10 h | a delay could be observed | no bacterial growth was detected | > 200 mg/L | Bacterial growth of S. faecalis at MIC/2 (S. faecalis; lowest concentration tested, 12.5 µg/mL): exponential growth of bacteria was observed; Log phase before bacterial growth, K. pneumoniae (K. pneumoniae; 25 µg/mL): 28 h; Log phase before bacterial growth, K. pneumoniae (K. pneumoniae; 50 µg/mL): 42 h; MBC (S. epidermidis [1]; Gram-positive): 12.5 mg/L (≈ 52.1 µM); MBC S. aureus (S. aureus): could not be obtained; Bacterial growth of C. freundii at 2MIC (C. freundii): no bacterial growth was detected; Log phase, C. freundii (C. freundii; lowest concentration (50 µg/mL)): 43 h
N#C[Se]C/C=C/c1ccccc1 [Compound 1a, (E)-(3-selenocyanatoprop-1-en-1-yl)benzene] | – | – | – | – | – | – | 50 mg/L (≈ 225 µM) | – | – | – | – | – | no bacterial growth was detected | 87 to 89 °C | no bacterial growth was detected | no bacterial growth was detected | 41 h | a delay could be observed | no bacterial growth was detected | 50 mg/L (≈ 225 µM) | IC50 (MDA-MB-231; Homo sapiens, MDA-MB-231, 48 h, read-out: IC50 MDA-MB-231, MTT assay, 48 h, mean ± SD): > 50 µM; IC50 (MDA-MB-231; read-out: IC50 MDA-MB-231, MTT assay, 48 h, mean ± SD): 71 ± 10.3 µM; Bacterial growth of K. pneumoniae at the concentrations tested (K. pneumoniae; 2MIC, MIC and MIC/2): no growth was detected; MIC (S. epidermidis [1]; 24 h): 12.5 mg/L (≈ 56.3 µM); MBC (S. epidermidis [1]): 12.5 mg/L (≈ 56.3 µM); IC50 (184B5; Homo sapiens, 184B5, 48 h): 55 ± 6.7 µM; IC50 (H1299; Homo sapiens, NCI-H1299, 48 h, read-out: IC50 H1299, MTT assay, 48 h, mean ± SD): > 50 µM; IC50 (H1299; read-out: IC50 H1299, MTT assay, 48 h, mean ± SD): 82.5 ± 5.9 µM; IC50 (HTB-54; Homo sapiens, HTB-54, 48 h, read-out: IC50 HTB-54, MTT assay, 48 h, mean ± SD): > 50 µM; IC50 (HTB-54; read-out: IC50 HTB-54, MTT assay, 48 h, mean ± SD): 58.7 ± 9 µM; Bacterial growth of C. freundii at 2MIC (C. freundii): no bacterial growth was detected
